According to ChEMBL document CHEMBL5370535, “Thiazolyl hydrazineylidenyl indolones as unique potential multitargeting broad-spectrum antimicrobial agents” (Eur J Med Chem, 2023):
Converted amounts (≈) assume the structure as drawn.

Columns and labels:
Type in all cases: functional
Candida albicans [1] = assay: Antifungal activity against Candida albicans ATCC 90023 assessed as inhibition of fungal growth incubated for 24 hrs by CLSI based two serial dilution assay
Pseudomonas aeruginosa [2] = assay: Antibacterial activity against Pseudomonas aeruginosa ATCC 27853 assessed as bacterial growth inhibition incubated for 24 hrs by CLSI based two serial dilution assay
Enterococcus faecalis = assay: Antibacterial activity against Enterococcus faecalis assessed as bacterial growth inhibition incubated for 24 hrs by CLSI based two serial dilution assay
Klebsiella pneumoniae = assay: Antibacterial activity against Klebsiella pneumoniae assessed as bacterial growth inhibition incubated for 24 hrs by CLSI based two serial dilution assay
Staphylococcus aureus [3] = assay: Antibacterial activity against Staphylococcus aureus 29213 assessed as bacterial growth inhibition incubated for 24 hrs by CLSI based two serial dilution assay
Candida parapsilosis = assay: Antifungal activity against Candida parapsilosis ATCC 22019 assessed as inhibition of fungal growth incubated for 24 hrs by CLSI based two serial dilution assay; settings: Lodderomyces parapsilosis
Pseudomonas aeruginosa [4] = assay: Antibacterial activity against Pseudomonas aeruginosa assessed as bacterial growth inhibition incubated for 24 hrs by CLSI based two serial dilution assay
Escherichia coli [5] = assay: Antibacterial activity against Escherichia coli 25922 assessed as bacterial growth inhibition incubated for 24 hrs by CLSI based two serial dilution assay
Escherichia coli [6] = assay: Antibacterial activity against Escherichia coli assessed as bacterial growth inhibition incubated for 24 hrs by CLSI based two serial dilution assay
Staphylococcus aureus [7] = assay: Antibacterial activity against methicillin-resistant Staphylococcus aureus assessed as bacterial growth inhibition incubated for 24 hrs by CLSI based two serial dilution assay
Acinetobacter baumannii = assay: Antibacterial activity against Acinetobacter baumannii assessed as bacterial growth inhibition incubated for 24 hrs by CLSI based two serial dilution assay
Aspergillus fumigatus = assay: Antifungal activity against Aspergillus fumigatus assessed as inhibition of fungal growth incubated for 24 hrs by CLSI based two serial dilution assay
Staphylococcus aureus [8] = assay: Antibacterial activity against Staphylococcus aureus 25923 assessed as bacterial growth inhibition incubated for 24 hrs by CLSI based two serial dilution assay
Staphylococcus aureus [9] = assay: Antibacterial activity against Staphylococcus aureus assessed as bacterial growth inhibition incubated for 24 hrs by CLSI based two serial dilution assay
Candida tropicalis = assay: Antifungal activity against Candida tropicalis assessed as inhibition of fungal growth incubated for 24 hrs by CLSI based two serial dilution assay
Candida albicans [10] = assay: Antifungal activity against Candida albicans assessed as inhibition of fungal growth incubated for 24 hrs by CLSI based two serial dilution assay

SMILES | MIC (Candida albicans [1]) [µM] | MIC (Pseudomonas aeruginosa [2]) [µM] | MIC (Enterococcus faecalis) [µM] | MIC (Klebsiella pneumoniae) [µM] | MIC (Staphylococcus aureus [3]) [µM] | MIC (Candida parapsilosis) [µM] | MIC (Pseudomonas aeruginosa [4]) [µM] | MIC (Escherichia coli [5]) [µM] | MIC (Escherichia coli [6]) [µM] | MIC (Staphylococcus aureus [7]) [µM] | MIC (Acinetobacter baumannii) [µM] | MIC (Aspergillus fumigatus) [µM] | MIC (Staphylococcus aureus [8]) [µM] | MIC (Staphylococcus aureus [9]) [µM] | MIC (Candida tropicalis) [µM] | MIC (Candida albicans [10]) [µM]
CCCCN1C(=O)/C(=N\Nc2nccs2)c2cccc(F)c21 | 4 (≈ 1.27 µg/mL) | 1 (≈ 0.318 µg/mL) | 2 (≈ 0.637 µg/mL) | 1 (≈ 0.318 µg/mL) | 16 (≈ 5.09 µg/mL) | 4 (≈ 1.27 µg/mL) | 1 (≈ 0.318 µg/mL) | 1 (≈ 0.318 µg/mL) | 4 (≈ 1.27 µg/mL) | 4 (≈ 1.27 µg/mL) | 0.5 (≈ 0.159 µg/mL) | 256 (≈ 81.5 µg/mL) | 1 (≈ 0.318 µg/mL) | 16 (≈ 5.09 µg/mL) | 1 (≈ 0.318 µg/mL) | 32 (≈ 10.2 µg/mL)
CCCCN1C(=O)/C(=N\Nc2nccs2)c2cc(F)ccc21 | 1 (≈ 0.318 µg/mL) | 4 (≈ 1.27 µg/mL) | 4 (≈ 1.27 µg/mL) | 1 (≈ 0.318 µg/mL) | 1 (≈ 0.318 µg/mL) | 1 (≈ 0.318 µg/mL) | 1 (≈ 0.318 µg/mL) | 1 (≈ 0.318 µg/mL) | 1 (≈ 0.318 µg/mL) | 2 (≈ 0.637 µg/mL) | 1 (≈ 0.318 µg/mL) | 4 (≈ 1.27 µg/mL) | 4 (≈ 1.27 µg/mL) | 4 (≈ 1.27 µg/mL) | 4 (≈ 1.27 µg/mL) | 1 (≈ 0.318 µg/mL)
CCCCN1C(=O)/C(=N\Nc2nc(-c3ccc(F)cc3F)cs2)c2ccccc21 | 512 (≈ 211 µg/mL) | 512 (≈ 211 µg/mL) | 512 (≈ 211 µg/mL) | 512 (≈ 211 µg/mL) | 4 (≈ 1.65 µg/mL) | 512 (≈ 211 µg/mL) | 2 (≈ 0.825 µg/mL) | 512 (≈ 211 µg/mL) | 512 (≈ 211 µg/mL) | 512 (≈ 211 µg/mL) | 512 (≈ 211 µg/mL) | 512 (≈ 211 µg/mL) | 512 (≈ 211 µg/mL) | 4 (≈ 1.65 µg/mL) | 512 (≈ 211 µg/mL) | 512 (≈ 211 µg/mL)
O=C1/C(=N\Nc2nccs2)c2ccccc2N1Cc1cccc(Cl)c1 | 128 (≈ 47.2 µg/mL) | 512 (≈ 189 µg/mL) | 32 (≈ 11.8 µg/mL) | 256 (≈ 94.4 µg/mL) | 16 (≈ 5.9 µg/mL) | 128 (≈ 47.2 µg/mL) | 256 (≈ 94.4 µg/mL) | 256 (≈ 94.4 µg/mL) | 128 (≈ 47.2 µg/mL) | 16 (≈ 5.9 µg/mL) | 256 (≈ 94.4 µg/mL) | 16 (≈ 5.9 µg/mL) | 8 (≈ 2.95 µg/mL) | 32 (≈ 11.8 µg/mL) | 64 (≈ 23.6 µg/mL) | 256 (≈ 94.4 µg/mL)
CCCN1C(=O)/C(=N\Nc2nccs2)c2ccccc21 | 128 (≈ 36.7 µg/mL) | 32 (≈ 9.16 µg/mL) | 16 (≈ 4.58 µg/mL) | 32 (≈ 9.16 µg/mL) | 4 (≈ 1.15 µg/mL) | 32 (≈ 9.16 µg/mL) | 2 (≈ 0.573 µg/mL) | 4 (≈ 1.15 µg/mL) | 128 (≈ 36.7 µg/mL) | 32 (≈ 9.16 µg/mL) | 32 (≈ 9.16 µg/mL) | 16 (≈ 4.58 µg/mL) | 4 (≈ 1.15 µg/mL) | 16 (≈ 4.58 µg/mL) | 32 (≈ 9.16 µg/mL) | 64 (≈ 18.3 µg/mL)
CCCCN1C(=O)/C(=N\Nc2nccs2)c2ccc(F)cc21 | 4 (≈ 1.27 µg/mL) | 2 (≈ 0.637 µg/mL) | 32 (≈ 10.2 µg/mL) | 2 (≈ 0.637 µg/mL) | 4 (≈ 1.27 µg/mL) | 1 (≈ 0.318 µg/mL) | 1 (≈ 0.318 µg/mL) | 4 (≈ 1.27 µg/mL) | 2 (≈ 0.637 µg/mL) | 4 (≈ 1.27 µg/mL) | 1 (≈ 0.318 µg/mL) | 2 (≈ 0.637 µg/mL) | 4 (≈ 1.27 µg/mL) | 4 (≈ 1.27 µg/mL) | 32 (≈ 10.2 µg/mL) | 2 (≈ 0.637 µg/mL)
CCCCN1C(=O)/C(=N\Nc2nccs2)c2c(Cl)cccc21 | 512 (≈ 171 µg/mL) | 128 (≈ 42.9 µg/mL) | 128 (≈ 42.9 µg/mL) | 1 (≈ 0.335 µg/mL) | 1 (≈ 0.335 µg/mL) | 16 (≈ 5.36 µg/mL) | 1 (≈ 0.335 µg/mL) | 512 (≈ 171 µg/mL) | 256 (≈ 85.7 µg/mL) | 256 (≈ 85.7 µg/mL) | 256 (≈ 85.7 µg/mL) | 256 (≈ 85.7 µg/mL) | 512 (≈ 171 µg/mL) | 512 (≈ 171 µg/mL) | 128 (≈ 42.9 µg/mL) | 256 (≈ 85.7 µg/mL)
O=C1/C(=N\Nc2nccs2)c2ccccc2N1Cc1ccccc1F | 128 (≈ 45.1 µg/mL) | 512 (≈ 180 µg/mL) | 8 (≈ 2.82 µg/mL) | 512 (≈ 180 µg/mL) | 256 (≈ 90.2 µg/mL) | 128 (≈ 45.1 µg/mL) | 256 (≈ 90.2 µg/mL) | 256 (≈ 90.2 µg/mL) | 512 (≈ 180 µg/mL) | 8 (≈ 2.82 µg/mL) | 512 (≈ 180 µg/mL) | 128 (≈ 45.1 µg/mL) | 4 (≈ 1.41 µg/mL) | 4 (≈ 1.41 µg/mL) | 16 (≈ 5.64 µg/mL) | 64 (≈ 22.6 µg/mL)
